Laboratory results published in US7687643B2, “Process for preparing 3,3-dimethylindolines” (Amgen Inc., priority 2001, dated 2010).

The compounds below were run on Human Umbilical Vein Endothelial cells (VEGF-stimulated) (assay: HUVEC proliferation assay, VEGF-stimulated). Conditions: VEGF 50 ng/mL, 72 h, CyQuant, read-out: inhibited VEGF-stimulated HUVEC proliferation at a level.
Assay type: cell-based
Outline: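 Pooled-donor HUVECs (passage 2–3) seeded in DMEM+10% FBS for 22 h, then pre-treated 2–3 h with five-point, five-fold compound dilutions (0.25% DMSO final). Stimulated with 50 ng/mL VEGF (bFGF 20 ng/mL on separate plates) for 72 h at 37 °C. CyQuant fluorescence (485/530 nm) after freeze-thaw; IC50 from 4-parameter fit.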
Work on `CNc1nccc(CNc2ncccc2C(=O)Nc2ccc(C(C)(C)C)c(NC(=O)CN(C)C)c2)n1` [Example 1077, N-(4-(1,1-dimethylethyl)-3-((N,N-dimethylglycyl)amino)phenyl)-2-(((2-(methylamino)-4-pyrimidinyl)methyl)amino)-3-pyridinecarboxamide] yielded an IC50 of less than 0.05 µM. In the case of `CNc1cc(CNc2ncccc2C(=O)Nc2cc(OC[C@@H]3CCCO3)cc(C(F)(F)F)c2)ccn1` [Example 1080, 2-(((2-(methylamino)-4-pyridinyl)methyl)amino)-N-(3-(((2S)-tetrahydro-2-furanylmethyl)oxy)-5-(trifluoromethyl)phenyl)-3-pyridinecarboxamide], the IC50 is reported as less than 0.05 µM. With `CNc1cc(CNc2ncccc2C(=O)Nc2cc(O[C@@H]3CCOC3)cc(C(F)(F)F)c2)ccn1` [Example 1083, 2-(((2-(methylamino)-4-pyridinyl)methyl)amino)-N-(3-((3R)-tetrahydro-3-furanyloxy)-5-(trifluoromethyl)phenyl)-3-pyridinecarboxamide] the IC50 was less than 0.05 µM. With `CNc1nccc(CNc2ncccc2C(=O)Nc2cc(O[C@@H]3CCOC3)cc(C(F)(F)F)c2)n1` [Example 1084, 2-(((2-(methylamino)-4-pyrimidinyl)methyl)amino)-N-(3-((3R)-tetrahydro-3-furanyloxy)-5-(trifluoromethyl)phenyl)-3-pyridinecarboxamide] the IC50 was less than 0.05 µM. Compound `CNc1nccc(CNc2ncccc2C(=O)Nc2cc(OC[C@H]3CCCN3C(C)=O)cc(C(F)(F)F)c2)n1` [Example 1085, N-(3-((((2R)-1-acetyl-2-pyrrolidinyl)methyl)oxy)-5-(trifluoromethyl)phenyl)-2-(((2-(methylamino)-4-pyrimidinyl)methyl)amino)-3-pyridinecarboxamide] has an IC50 of less than 0.05 µM. For `O=C(Nc1cc(NC(=O)c2cccnc2NCc2ccncn2)cc(C(F)(F)F)c1)O[C@H]1CCOC1` [Example 1086, (3S)-tetrahydro-3-furanyl 3-(((2-((4-pyrimidinylmethyl)amino)-3-pyridinyl)carbonyl)amino)-5-(trifluoromethyl)phenylcarbamate], the IC50 was less than 0.05 µM. `O=C(Nc1cc(NC(=O)c2cccnc2NCc2ccncc2)cc(C(F)(F)F)c1)O[C@H]1CCOC1` [Example 1088, (3S)-tetrahydro-3-furanyl 3-(((2-((4-pyridinylmethyl)amino)-3-pyridinyl)carbonyl)amino)-5-(trifluoromethyl)phenylcarbamate] was tested, and the IC50 was less than 0.05 µM. In the case of `CNc1nccc(CNc2ncccc2C(=O)Nc2cc(NC(=O)O[C@H]3CCOC3)cc(C(F)(F)F)c2)n1` [Example 1089, (3S)-tetrahydro-3-furanyl 3-(((2-(((2-(methylamino)-4-pyrimidinyl)methyl)amino)-3-pyridinyl)carbonyl)amino)-5-(trifluoromethyl)phenylcarbamate], the IC50 is reported as less than 0.05 µM. Compound `CS(=O)(=O)NCCOc1cc(NC(=O)c2cccnc2NCc2ccncc2)cc(C(F)(F)F)c1` [Example 1090, N-(3-((2-((methylsulfonyl)amino)ethyl)oxy)-5-(trifluoromethyl)phenyl)-2-((4-pyridinylmethyl)amino)-3-pyridinecarboxamide] has an IC50 of less than 0.05 µM. `CNc1nccc(CNc2ncccc2C(=O)Nc2cc(OCCNS(C)(=O)=O)cc(C(F)(F)F)c2)n1` [Example 1091, 2-(((2-(methylamino)-4-pyrimidinyl)methyl)amino)-N-(3-((2-((methylsulfonyl)amino)ethyl)oxy)-5-(trifluoromethyl)phenyl)-3-pyridinecarboxamide] was tested, and the IC50 was less than 0.05 µM. With `CNc1nccc(CNc2ncccc2C(=O)Nc2cc(NS(C)(=O)=O)cc(C(F)(F)F)c2)n1` [Example 1093, 2-(((2-(methylamino)-4-pyrimidinyl)methyl)amino)-N-(3-((methylsulfonyl)amino)-5-(trifluoromethyl)phenyl)-3-pyridinecarboxamide] the IC50 was less than 0.05 µM. In the case of `CS(=O)(=O)Nc1cc(NC(=O)c2cccnc2NCc2ccncc2)cc(C(F)(F)F)c1` [Example 1095, N-(3-((methylsulfonyl)amino)-5-(trifluoromethyl)phenyl)-2-((4-pyridinylmethyl)amino)-3-pyridinecarboxamide], the IC50 is reported as less than 0.05 µM.
